Values quoted from earlier work as cited in EP0077028B1, “Renin inhibitory peptides” (Merck & Co., Inc., priority 1981, dated 1987).

Test system: hog renin
Settings: after the injection of hog renin into nephrectomized rats

pepstatin
blood pressure in vivo: reduce blood pressure
